Laboratory results: patent US20240287007A1, “N-(1,3,4-OXADIAZOL-2-YL)PHENYLCARBOXAMIDES AS HERBICIDES” (BAYER AKTIENGESELLSCHAFT, priority 2021, published 2024)

Assays:
Assay type in all cases: in vivo
KCHSC (Kochia scoparia) [1] = assay: Post-emergence herbicidal action against KCHSC; details: visual assessment after about 3 weeks
Protocol: (§1) Seeds of monocotyledonous and dicotyledonous weed and crop plants are laid out in sandy loam soil in wood-fiber pots, covered with soil and cultivated in a greenhouse under good growth conditions. 2 to 3 weeks after sowing, the trial plants are treated at the one-leaf stage. The compounds of the invention, formulated in the form of wettable powders (WP) or as emulsion concentrates (EC), are then sprayed onto the green parts of the plants as aqueous suspension or emulsion at a water application rate equating to 600 to 800 l/ha with addition of 0.2% wetting agent. After the test plants have been left to stand in the greenhouse under optimal growth conditions for about 3 weeks, the action of the preparations is assessed visually in comparison to untreated controls (herbicidal action in percent (%): 100% activity=the plants have died, 0% activity=like control plants).

KCHSC (Kochia scoparia) [2] = assay: Pre-emergence herbicidal effect against KCHSC; details: scored visually after 3 weeks
Text: (§2) Seeds of monocotyledonous and dicotyledonous weed plants and crop plants are laid out in sandy loam soil in wood-fiber pots and covered with soil. The compounds of the invention, formulated in the form of wettable powders (WP) or as emulsion concentrates (EC), are then applied to the surface of the covering soil as aqueous suspension or emulsion at a water application rate equating to 600 to 800 l/ha with addition of 0.2% wetting agent. After the treatment, the pots are placed in a greenhouse and kept under good growth conditions for the trial plants. The damage to the test plants is scored visually after a test period of 3 weeks by comparison with untreated controls (herbicidal activity in percent (%): 100% activity=the plants have died, 0% activity=like control plants).

[3] = system: AMARE (Amaranthus retroflexus); assay: Pre-emergence herbicidal effect against AMARE; details: scored visually after 3 weeks
Text: as §2

[4] = system: AMARE (Amaranthus retroflexus); assay: Post-emergence herbicidal action against AMARE; details: visual assessment after about 3 weeks
Protocol: as §1

SETVI (Setaria viridis) [5] = assay: Pre-emergence herbicidal effect against SETVI; details: scored visually after 3 weeks
Text: as §2

[6] = system: DIGSA (Digitaria sanguinalis); assay: Post-emergence herbicidal action against DIGSA; details: visual assessment after about 3 weeks
Protocol: as §1

VIOTR (Viola tricolor) [7] = assay: Pre-emergence herbicidal effect against VIOTR; details: scored visually after 3 weeks
Text: as §2

[8] = system: ABUTH (Abutylon threophrasti); assay: Post-emergence herbicidal action against ABUTH; details: visual assessment after about 3 weeks
Protocol: as §1

[9] = system: PHBPU (Pharbitis purpurea); assay: Post-emergence herbicidal action against PHBPU; details: visual assessment after about 3 weeks
Protocol: as §1

VERPE (Veronica persica) [10] = assay: Post-emergence herbicidal action against VERPE; details: visual assessment after about 3 weeks
Protocol: as §1

[11] = system: DIGSA (Digitaria sanguinalis); assay: Pre-emergence herbicidal effect against DIGSA; details: scored visually after 3 weeks
Text: as §2

[12] = system: MATIN (Matricaria inodora); assay: Post-emergence herbicidal action against MATIN; details: visual assessment after about 3 weeks
Protocol: as §1

VIOTR (Viola tricolor) [13] = assay: Post-emergence herbicidal action against VIOTR; details: visual assessment after about 3 weeks
Protocol: as §1

[14] = system: ABUTH (Abutylon threophrasti); assay: Pre-emergence herbicidal effect against ABUTH; details: scored visually after 3 weeks
Text: as §2

SETVI (Setaria viridis) [15] = assay: Post-emergence herbicidal action against SETVI; details: visual assessment after about 3 weeks
Protocol: as §1

[16] = system: ECHCG (Echinochloa crus-galli); assay: Pre-emergence herbicidal effect against ECHCG; details: scored visually after 3 weeks
Text: as §2

[17] = system: POLCO (Polygonum convolvulus); assay: Pre-emergence herbicidal effect against POLCO; details: scored visually after 3 weeks
Text: as §2

[18] = system: PHBPU (Pharbitis purpurea); assay: Pre-emergence herbicidal effect against PHBPU; details: scored visually after 3 weeks
Text: as §2

VERPE (Veronica persica) [19] = assay: Pre-emergence herbicidal effect against VERPE; details: 80 g/ha, scored visually after 3 weeks
Text: as §2

LOLRI (Lolium rigidum) [20] = assay: Pre-emergence herbicidal effect against LOLRI; details: scored visually after 3 weeks
Text: as §2

[21] = system: POLCO (Polygonum convolvulus); assay: Post-emergence herbicidal action against POLCO; details: visual assessment after about 3 weeks
Protocol: as §1

[22] = system: ALOMY (Alopecurus myosuroides); assay: Pre-emergence herbicidal effect against ALOMY; details: 80 g/ha, scored visually after 3 weeks
Text: as §2

AVEFA (Avena fatua) = assay: Pre-emergence herbicidal effect against AVEFA; details: scored visually after 3 weeks
Text: as §2

LOLRI (Lolium rigidum) [23] = assay: Post-emergence herbicidal action against LOLRI; details: visual assessment after about 3 weeks
Protocol: as §1

[24] = system: MATIN (Matricaria inodora); assay: Pre-emergence herbicidal effect against MATIN; details: scored visually after 3 weeks
Text: as §2

CSc1c(OC(F)(F)F)ccc(C(=O)Nc2nnco2)c1Cl [Example 1-31, 2-chloro-3-(methylsulfanyl)-N-(1,3,4-oxadiazol-2-yl)-4-(trifluoromethoxy)benzamide]
100%: Post-emergence effect at 20 g/ha against KCHSC in % (KCHSC (Kochia scoparia) [1]) | Post-emergence effect at 80 g/ha against KCHSC in % (KCHSC (Kochia scoparia) [1]) | Pre-emergence effect at 80 g/ha against KCHSC in % (KCHSC (Kochia scoparia) [2]) | Pre-emergence effect at 80 g/ha against AMARE in % [3] | Post-emergence effect at 20 g/ha against AMARE in % [4] | Post-emergence effect at 80 g/ha against AMARE in % [4] | Pre-emergence effect at 80 g/ha against SETVI in % (SETVI (Setaria viridis) [5]) | Pre-emergence effect at 80 g/ha against DIGSA in % [11] | Post-emergence effect at 80 g/ha against VIOTR in % (VIOTR (Viola tricolor) [13]) | Pre-emergence effect at 80 g/ha against ABUTH in % [14] | Pre-emergence effect at 80 g/ha against ECHCG in % [16]
90%: Pre-emergence effect at 20 g/ha against KCHSC in % (KCHSC (Kochia scoparia) [2]) | Post-emergence effect at 20 g/ha against DIGSA in % [6] | Post-emergence effect at 80 g/ha against DIGSA in % [6] | Pre-emergence effect at 20 g/ha against VIOTR in % (VIOTR (Viola tricolor) [7]) | Pre-emergence effect at 80 g/ha against VIOTR in % (VIOTR (Viola tricolor) [7]) | Post-emergence effect at 80 g/ha against ABUTH in % [8] | Post-emergence effect at 20 g/ha against PHBPU in % [9] | Post-emergence effect at 80 g/ha against PHBPU in % [9] | Pre-emergence effect at 20 g/ha against DIGSA in % [11] | Post-emergence effect at 80 g/ha against MATIN in % [12] | Post-emergence effect at 20 g/ha against VIOTR in % (VIOTR (Viola tricolor) [13]) | Pre-emergence effect at 20 g/ha against ABUTH in % [14] | Post-emergence effect at 80 g/ha against SETVI in % (SETVI (Setaria viridis) [15])
80%: Post-emergence effect at 80 g/ha against VERPE in % (VERPE (Veronica persica) [10]) | Post-emergence effect at 20 g/ha against MATIN in % [12] | Post-emergence effect at 20 g/ha against SETVI in % (SETVI (Setaria viridis) [15])

CS(=O)(=O)c1c(OC(F)(F)F)ccc(C(=O)Nc2nnco2)c1Cl [Example 1-35, 2-chloro-3-(methylsulfonyl)-N-(1,3,4-oxadiazol-2-yl)-4-(trifluoromethoxy)benzamide]
100%: Pre-emergence effect at 80 g/ha against POLCO in % ([17]; 80 g/ha) | Pre-emergence effect at 80 g/ha against PHBPU in % ([18]; 80 g/ha) | Post-emergence effect at 20 g/ha against KCHSC in % (KCHSC (Kochia scoparia) [1]) | Post-emergence effect at 80 g/ha against KCHSC in % (KCHSC (Kochia scoparia) [1]) | Pre-emergence effect at 20 g/ha against KCHSC in % (KCHSC (Kochia scoparia) [2]) | Pre-emergence effect at 80 g/ha against KCHSC in % (KCHSC (Kochia scoparia) [2]) | Pre-emergence effect at 20 g/ha against AMARE in % ([3]; 20 g/ha) | Pre-emergence effect at 80 g/ha against AMARE in % [3] | Pre-emergence effect at 20 g/ha against SETVI in % (SETVI (Setaria viridis) [5]; 20 g/ha) | Pre-emergence effect at 80 g/ha against SETVI in % (SETVI (Setaria viridis) [5]) | Pre-emergence effect at 80 g/ha against VERPE in % (VERPE (Veronica persica) [19]) | Post-emergence effect at 80 g/ha against DIGSA in % [6] | Pre-emergence effect at 20 g/ha against VIOTR in % (VIOTR (Viola tricolor) [7]) | Pre-emergence effect at 80 g/ha against VIOTR in % (VIOTR (Viola tricolor) [7]) | Post-emergence effect at 80 g/ha against PHBPU in % [9] | Post-emergence effect at 80 g/ha against VERPE in % (VERPE (Veronica persica) [10]) | Pre-emergence effect at 20 g/ha against DIGSA in % [11] | Pre-emergence effect at 80 g/ha against DIGSA in % [11] | Post-emergence effect at 80 g/ha against POLCO in % ([21]; 80 g/ha) | Post-emergence effect at 80 g/ha against MATIN in % [12] | Pre-emergence effect at 80 g/ha against A VEFA in % (AVEFA (Avena fatua); 80 g/ha) | Pre-emergence effect at 20 g/ha against MATIN in % ([24]; 20 g/ha) | Pre-emergence effect at 80 g/ha against MATIN in % ([24]; 80 g/ha) | Post-emergence effect at 20 g/ha against VIOTR in % (VIOTR (Viola tricolor) [13]) | Post-emergence effect at 80 g/ha against VIOTR in % (VIOTR (Viola tricolor) [13]) | Pre-emergence effect at 80 g/ha against ABUTH in % [14] | Post-emergence effect at 20 g/ha against SETVI in % (SETVI (Setaria viridis) [15]) | Post-emergence effect at 80 g/ha against SETVI in % (SETVI (Setaria viridis) [15]) | Pre-emergence effect at 20 g/ha against ECHCG in % ([16]; 20 g/ha) | Pre-emergence effect at 80 g/ha against ECHCG in % [16]
80%: Pre-emergence effect at 20 g/ha against PHBPU in % ([18]; 20 g/ha) | Post-emergence effect at 20 g/ha against ABUTH in % ([8]; 20 g/ha) | Pre-emergence effect at 20 g/ha against LOLRI in % (LOLRI (Lolium rigidum) [20]; 20 g/ha) | Post-emergence effect at 20 g/ha against POLCO in % ([21]; 20 g/ha) | Pre-emergence effect at 80 g/ha against ALOMY in % [22] | Post-emergence effect at 80 g/ha against LOLRI in % (LOLRI (Lolium rigidum) [23])
90%: Pre-emergence effect at 20 g/ha against POLCO in % ([17]; 20 g/ha) | Post-emergence effect at 20 g/ha against AMARE in % [4] | Post-emergence effect at 80 g/ha against AMARE in % [4] | Post-emergence effect at 20 g/ha against DIGSA in % [6] | Post-emergence effect at 80 g/ha against ABUTH in % [8] | Post-emergence effect at 20 g/ha against PHBPU in % [9] | Post-emergence effect at 20 g/ha against VERPE in % (VERPE (Veronica persica) [10]; 20 g/ha) | Pre-emergence effect at 80 g/ha against LOLRI in % (LOLRI (Lolium rigidum) [20]; 80 g/ha) | Post-emergence effect at 20 g/ha against MATIN in % [12] | Pre-emergence effect at 20 g/ha against AVEFA in % (AVEFA (Avena fatua); 20 g/ha) | Pre-emergence effect at 20 g/ha against ABUTH in % [14]
